Laboratory results taken from patent US5187103A, “Colorimetric method and reagent for the assay of lithium in a test sample” (Miles Inc., priority 1991, dated 1993).
Each block holds one compound with its values, some of them ahead of it.

Legend:
[1] = pKa in 10% DEGMEE-water, determined spectrophotometrically (Table II); type: physicochemical; settings: for pKa: spectrophotometric
[2] = Ion selectivity and sensitivity of larger cavity cryptand analogs
[3] = UV-VIS spectra of the cryptand in complexation with various ions (Table I); type: physicochemical
Method: (§1) The UV-VIS spectra of p-nitrophenylazophenol (1.1.0) cryptand in complexation with various ions, i.e. Na^+ K^+, and Li^+, were determined in 1 to 2×10^-4 M solutions of the cryptand in 2 to 50% volume to volume (v/v) DEGMEE in water. A 1×10^-2 M stock solution of the cryptand was prepared in DEGMEE. Typically, the solutions were prepared as follows: for the spectral characteristics in 10% v/v DEGMEE, 0.2 ml of the stock solution was added to 0.8 ml DEGMEE. The diluted cryptand was quantitatively transferred to 9.0 ml of the appropriate reagent and mixed. 1N HCl was used to obtain the acid form (HL) and 1M TMAOH for the base form of the cryptand which is designated in the following tables as L. Tne resulting solutions were scanned from 700 to 300 nm on a Beckman DU-8 spectrophotometer. The spectra of the cation complexes of p-nitrophenylazophenol (1.1.0) cryptand in 10% v/v DEGMEE/1M TMAOH were obtained by adding 0.02 ml LiCl, KCl, NaCl, all 1N to their respective cuvettes containing 2 ml of reagent and scanned from 700 to 300 nm.
Table I records the wavelength maxima and absorptivities of p-nitrophenylazophenol (1.1.0) cryptand when exposed to Na^+, K^+ and Li^+ ions in 10% v/v DEGMEE.

[4] = Spectral response to lithium (analytical wavelength); type: physicochemical
Method: as §1

[5] = Effect of organic solvent (DEGMEE) concentration on sensitivity and selectivity; settings: 2.5% DEGMEE
Method: as §1
However, high concentration of solvent also affects the selectivity; at 25% DEGMEE, interference by 140 mM Na^+ corresponds to 0.1 mM Li^+, which is not acceptable for clinical purposes. The selectivity requirements of the lithium assay are high, in certain cases where the concentration of lithium is near 0.1 mM, the molar ratio of Li^+ :Na^+ is about 1:1500. […]

[6] = Effect of pH on response to cations in 10% v/v DEGMEE (Table III); type: physicochemical
Method: as §1
A zwitterionic buffer CAPS was used (Table III).

[7] = Selectivity for Li^+ over Na^+ and other cations (slopes of response curves); settings: sample to reagent ratio 1:40
Source text: By taking the ratio of the slope of the respective response curves, one obtains approximate selectivity of 4000:1 for Li^+ /Na^+.

[8] = Effect of non-ionic surfactant on wavelength maxima and absorptivities (first Table IV); type: physicochemical; settings: Brij-35 and Triton X-100 at 1% w/v; cryptand and its lithium complex
Source text: Non-ionic surfactants are known to interact with monoazo dyes producing a disturbance of the electronic spectrum.

[9] = 10% v/v DEGMEE, HL in 1N HCl, L and complexes in 1M TMAOH

- pKa [1]: 11.1
SMILES: O=[N+]([O-])c1ccc(N=Nc2cc3c(O)c(c2)CCN2CCOCCOCCN(CCOCCOCC2)CC3)cc1 [(2.2.0) cryptand, reference compound]
- selectivity and sensitivity ([2]; effect of increased cavity size): more selective for potassium over sodium and lithium

- λmax 1 [3, 9]: 494 nm
- λmax 2 [3, 9]: 363 nm
- ε 1 ([3]; absorptivity at λmax 1, 10% v/v DEGMEE): 8,800 M^-1 cm^-1
- ε 2 ([3]; absorptivity at λmax 2, 10% v/v DEGMEE): 8,000 M^-1 cm^-1
SMILES: O=[N+]([O-])c1ccc(N=Nc2cc3c(O)c(c2)CCN2CCOCCN(CCOCC2)CC3)cc1 [HL]

- pKa [1]: 11.5
SMILES: O=[N+]([O-])c1ccc(N=Nc2cc3c(O)c(c2)CCCN2CCOCCN(CCC3)CCOCC2)cc1 [extended (1.1.0) cryptand]
- response to lithium ([2]; extraction mode): very good response to lithium in the extraction mode

- pKa compared with larger cavity analogs or usual [1]: Higher than usual pKa
- pKa [1]: 12.6
- wavelength of decrease in absorbance with lithium [4]: 600 nm
- wavelength of increase of the lithium complex [4]: 534 nm
SMILES: O=[N+]([O-])c1ccc(N=Nc2cc3c(O)c(c2)CCN2CCOCCN(CCOCC2)CC3)cc1 [p-nitrophenylazophenol (1.1.0) cryptand]
- wavelength maxima and absorptivities of acid form ([3]; acid form): two wavelength maxima (Table I) of equivalent absorptivities
- reduction of response to lithium [5]: 25%
- shift and absorptivity change with pH [6]: bathochromic shift with concurrent increase in absorptivity
- selectivity over sodium [7]: almost total selectivity over sodium
- effect of surfactant on λmax and absorptivities [8]: substantial bathochromic shift of the λmax and an increase in the absorptivities
